Results from patent publication US7192982B2, “Modulators of peroxisome proliferator activated receptors” (Ligand Pharmaceuticals, Inc., priority 2001, dated 2007).
One block for each molecule: values may come before it.

Assays:
[1] = tested on: mice, transgenic for human apoAI; assay: Evaluation of triglyceride and cholesterol levels in HuapoAI transgenic mice; format: in vivo; details: hu apoAI transgenic mice
Experimental: Five to six week old male mice, transgenic for human apoAI [C57B1/6-tgn(apoa1)1rub, Jackson Laboratory, Bar Harbor, Me.] were housed five per cage (10″×20″×8″ with aspen chip bedding) with food (Purina 5001) and water available at all times. After an acclimation period of 2 weeks, animals were individually identified by ear notches, weighed and assigned to groups based on body weight. Beginning the following morning, mice were dosed daily by oral gavage for 7 days using a 20 gauge, 1½″ curved disposable feeding needle. Treatments were test compounds (30 mg/kg), a positive control (fenofibrate, 100 mg/kg) or vehicle [1% carboxymethylcellulose (w/v)/0.25% Tween80 (w/v); 0.2 ml/mouse]. Prior to termination on day 7, mice were weighed and dosed. Three hours after dosing, animals were anesthetized by inhalation of isoflurane (2–4%) and blood obtained via cardiac puncture (0.7–1.0 ml). Whole blood was transferred to serum separator tubes (Vacutainer SST), chilled on ice and permitted to clot. Serum, was obtained after centrifugation at 4° C. and frozen until analysis for triglycerides, total cholesterol, compound levels and serum lipoprotein profiled by fast protein liquid, chromatography (FPLC) coupled to an inline detection system. After sacrifice by cervical dislocation, the liver, heart and epididymal fat pads were excised and weighed.
Glucose was measured colorimetrically by using commercially purchased reagents (Sigma #315-500). According to the manufacturers, the procedures were modified from published work (McGowan et al. Clin Chem, 20:470–5 (1974) and Keston, A. Specific colorimetric enzymatic analytical reagents for glucose. Abstract of papers 129th Meeting ACS, 31C (1956).); and depend on the release of a mole of hydrogen peroxide for each mole of analyte coupled with a color reaction first described by Trinder (Trinder, P. Ann Clin Biochem, 6:24 (1969)). The absorbance of the dye produced was linearly related to the analyte in the sample. The assays was further modified for use in a 96 well format. Standards (Sigma #339-11, Sigma #16-11, and Sigma #CC0534 for glucose, triglycerides and total cholesterol, respectively), quality control plasma (Sigma # A2034), and samples-(2 or 5 μl well) were measured in duplicate using 200 μl of reagent. An additional aliquot of sample, pipetted to a third well and diluted in 200 μl water, provided ai blank for each specimen. Plates were incubated at room temperature (18, 15, and 10 minutes for glucose, triglycerides and total cholesterol, respectively) on a plate shaker and absorbance read at 500 nm (glucose and total cholesterol) or 540 nm (triglycerides) on a plate reader. Sample absorbance was compared to a standard curve (100–800, 10–500, and 100–400 mg/dl for glucose, triglycerides and total cholesterol, respectively). Values for the quality control sample wee consistently within the expected range and the coefficient of variation for samples is below 10%. All samples from an experiment were assayed at the same time to minimize inter-assay variability.
Serum lipoproteins were separated and cholesterol was quantitated with an in-line detection system. Sample was applied to a Superose® 6 HR 10/30 size exclusion column (Amersham Pharmacia Biotech) and eluted with phosphate buffered saline-EDTA at 0.5 ml/min. Cholesterol reagent (Roche Diagnostics Chol/HP 704036) at 0.16 ml/min was mixed with the column effluent through a T-connection, and the mixture was passed through a 15 m×0.5 mm id knitted tubing reactor immersed in a 37° C. water bath. The colored product produced in the presence of cholesterol was monitored in the flow stream at 505 nm, and the analog voltage from the monitor was converted to a digital signal for collection and analysis. The change in voltage corresponding to change in cholesterol concentration was plotted against time, and the area under the curve corresponding to the elution of VLDL, LDL and HDL was calculated (Perkin Elmer Turbochrome software).

melting point: 111 to 112 °C
Structure (SMILES): CO[C@@H](Cc1ccc(C#CCOc2ccc(-c3ccccc3)cc2)cc1)C(=O)O [Example 1, (2S)-3-{4-[3-(Biphenyl-4-yloxy)-prop-1-ynyl]-phenyl}-2-methoxy-propionic acid]

Structure (SMILES): CC(C)OC(=O)C(C)(C)Oc1ccc(C(=O)c2ccc(Cl)cc2)cc1 [fenofibrate]
mean percent increase of HDLc ([1]; FPLC of pooled sera, 100 mg/kg oral daily for 7 days, versus vehicle): 48% | high-density lipoprotein cholesterol (HDLc) peak area ([1]; FPLC of pooled sera, 100 mg/kg oral daily for 7 days, vehicle 47 v-sec to 62 v-sec): 68–96 v-sec | mean elevation of total serum cholesterol ([1]; 100 mg/kg oral gavage daily for 7 days, versus vehicle): 41% | average total serum cholesterol values ([1]; 100 mg/kg oral gavage daily for 7 days, vehicle about 140 to 180 mg/dl): 190 to 280 mg/dL | mean reduction of triglycerides ([1]; serum, 100 mg/kg oral gavage daily for 7 days, versus vehicle): 37% | average triglycerides values ([1]; serum, 100 mg/kg oral gavage daily for 7 days, vehicle about 60 to 80 mg/dl): 33 to 58 mg/dL
